Results taken from US20140038896A1, “Retroelements and mental disorders and methods of measuring L1 retrotransposition” (Salk Institute for Biological Studies, priority 2009, published 2014).

Columns and labels:
[1] = system: MeCP2 and Sox2; experiment: Co-immunoprecipitation between MeCP2 and Sox2; type: cell-based, rat; details: in the presence of 5-Aza
Description: Immunofluorescence for EGFP was performed as previously described (11). A non-transgenic animal was used to measure the background fluorescence in the brain and to establish a threshold for detection. Western blotting was carried out using standard protocols with the following antibodies: mouse anti-Actin (1/500, Ambion), rabbit anti-MeCP2 (1/1000, Imgenex or Upstate), and rabbit anti-Sox2 (1/100, Chemicon). All secondary antibodies were purchased from Jackson ImmunoResearch. For co-immunoprecipitation, the Nuclear Complex Co-IP kit (Active Motif) was used, following the manufacturer's protocol with the highest stringency buffers.
(§1) Using chromatin immunoprecipitation (ChIP), high levels of MeCP2 were detected in association with the L1 promoter region (i.e., 5′UTR) in rat NSCs compared to differentiated neurons (FIG. 1F). To rule out differences in protein abundance that may differently influence ChIP amplification, western blot analysis was performed using lysates from cells that had undergone neuronal differentiation. […] Next, it was asked if releasing of MeCP2 from the methylated DNA would increase its association with Sox2 in solution. The Co-IP experiment in the presence of the 5-Aza was then repeated. […] It may be that both configurations can occur on the same L1 promoter region or each possibility is a L1 element sequence-dependent event.

[2] = system: L1 5′UTR CpG islands; experiment: Bisulfite analysis of L1 5′UTR DNA methylation in NSCs; type: cell-based, rat; details: treatment for 4-days
Description: Genomic DNA from NSCs was isolated using standard phenol-chloroform extraction techniques. Subsequently, DNA was digested with the restriction enzyme EcoRI and the bisulfite conversion reaction was performed using the Epitect kit (Quiagen), following manufacturer's instructions. Primers were designed based on the rat L1 sequence Mlvi2, using Methyl Primer Express; primers for L1 converted 5′UTR region: forward 5-[…]-3′ (SEQ ID NO:1) and reverse 5′-[…]-3′ (SEQ ID NO:2). PCR products were cloned into TOPO TA 2.1 plasmids (Invitrogen) and 40 bacterial colonies were analyzed by sequencing.

[3] = system: endogenous rat L1 promoter region (5′UTR); experiment: ChIP of MeCP2 and Sox2 on the endogenous rat L1 promoter region in NSCs; type: cell-based; details: for MeCP2 ChIP signal / association to the L1 promoter region: 500 ng/ml for 4 days
Excerpt: ChIP assay was done essentially following the manufacturer's protocol using a ChIP assay kit (Upstate). Antibodies used were anti-MeCP2 (Upstate), Sox2 (Chemicon), and IgG. Purified DNA was amplified by PCR using primers for the rat L1 5′UTR promoter region (L1.3, accession # X03095).
as §1

Sox2 binding to the L1 promoter ([3]; 5-Aza treatment): did riot prevent
SMILES: Nc1ncn([C@@H]2O[C@H](CO)[C@@H](O)[C@H]2O)c(=O)n1 [5-Azacytidine]
amount of MeCP2 in association with Sox2 in solution (Co-IP) [1]: increased
removal of methyl radicals from the 5′UTR L1 region (bisulfite) [2]: completely removed
MeCP2 ChIP signal / association to the L1 promoter region [3]: lost
MeCP2 ChIP signal / association to the L1 promoter region ([3]; listed as 5-Azacitidine): reduced
